pEC50, pIC50: −log10 of the molar value.

The test system of test [1] is HBV in HepG2.2.15 cells (HBV HepG2.2.15细胞株). Put plainly: In vitro anti-HBV activity in HBV HepG2.2.15 cell line (qPCR of HBV DNA in culture supernatant). The test is classed as cell-based. Particulars: Hepatitis B virus, 192 h, HBV DNA in culture supernatant by qPCR, collected on day 8, top concentration 16.4 μM, 3-fold dilution, 9 points, duplicate wells. A general note: Real-time PCR tracks product formation cycle by cycle.

Another test has as its system HBV. Particulars: cited from Science, 299 (2003), 893-896; cited from earlier work.

As a reminder, the pEC50 is −log10 of the EC50, conventionally taken in molar units. For the compound `CCOC(=O)C1=C(CN2CCOC[C@H]2C(=O)NS(C)(=O)=O)NC(c2nccs2)=NC1c1ccc(F)cc1Br` (stereo partly drawn) [实施例1, 4-(2-溴-4-氟苯基)-6-(((S)-3-((甲磺酰基)氨甲酰基)吗啉代)甲基)-2-(噻唑-2-基)-1,4-二氢嘧啶-5-甲酸乙酯], the pEC50 in test [1] was 6.00. The same measure, in the same setting: to `CCOC(=O)C1=C(CN2CCOC[C@H]2C(=O)NS(=O)(=O)C2CC2)NC(c2nccs2)=NC1c1ccc(F)cc1Br` (stereo partly drawn) [实施例2, 4-(2-溴-4-氟苯基)-6-(((S)-3-((环丙磺酰基)氨甲酰基)吗啉)甲基)-2-(噻唑-2-基)-1,4-二氢嘧啶-5-甲酸乙酯] belongs 5.64; to `CCOC(=O)C1=C(CN2CCOC(CCC(=O)NCc3ccccc3)C2)NC(c2nccs2)=NC1c1ccc(F)cc1Br` (centres unmarked) [实施例3, 6-((2-(3-(苄胺)-3-氧代丙基)吗啉)甲基)-4-(2-溴-4-氟苯基)-2-(噻唑-2-基)-1,4-二氢嘧啶-5-甲酸乙酯], 6.89. On the same count and under the same terms, to `CCOC(=O)C1=C(CN2CCOC[C@H]2C(=O)NC2CC2)NC(c2nccs2)=N[C@H]1c1ccc(F)cc1Br` [实施例4, (R)-4-(2-溴-4-氟苯基)-6-(((S)-3-(环丙氨甲酰基)吗啉代)甲基)-2-(噻唑-2-基)-1,4-二氢嘧啶-5-甲酸乙酯] belongs 6.15.

Compound `CCOC(=O)C1=C(CN2CCOC[C@H]2C(=O)NC2CC2)NC(c2nccs2)=N[C@H]1c1ccc(F)cc1Cl` [实施例5, (R)-4-(2-氯-4-氟苯基)-6-(((S)-3-(环丙氨甲酰基)吗啉代)甲基)-2-(噻唑-2-基)-1,4-二氢嘧啶-5-甲酸乙酯] showed a pEC50 in test [1] of 6.10.

Compound `CCOC(=O)C1=C(CN2CCOC[C@H]2C(=O)NC2CC2)NC(c2nccs2)=N[C@H]1c1ccc(Cl)cc1Cl` [实施例6, (R)-6-(((S)-3-(环丙氨甲酰基)吗啉代)甲基)-4-(2,4-二氯苯基)-2-(噻唑-2-基)-1,4-二氢嘧啶-5-甲酸乙酯] showed a pEC50 in test [1] of 6.19. Still for that read-out and setting: to `CCOC(=O)C1=C(CN2CCOC[C@H]2C(=O)NCc2ccccc2)NC(c2nccs2)=N[C@H]1c1ccc(F)cc1Br` [实施例7, (R)-6-(((S)-3-(苄基氨甲酰基)吗啉代)甲基)-4-(2-溴-4-氟苯基)-2-(噻唑-2-基)-1,4-二氢嘧啶-5-甲酸乙酯] belongs 6.17; to `CCOC(=O)C1=C(CN2CCOC[C@H]2C(=O)NCc2ccccc2)NC(c2nccs2)=N[C@H]1c1ccc(F)cc1Cl` [实施例8, (R)-6-(((S)-3-(苄基氨甲酰基)吗啉代)甲基)-4-(2-氯-4-氟苯基)-2-(噻唑-2-基)-1,4-二氢嘧啶-5-甲酸乙酯], 6.05; to `CCOC(=O)C1=C(CN2CCOC[C@H]2C(=O)NCc2ccccc2)NC(c2nccs2)=N[C@H]1c1ccc(Cl)cc1Cl` [实施例9, (R)-6-(((S)-3-(苄基氨甲酰)吗啉代)甲基)-4-(2,4-二氯苯基)-2-(噻唑-2-基)-1,4-二氢嘧啶-5-甲酸乙酯], 6.27. The same measure, in the same setting: to `CCOC(=O)C1=C(CN2CCOC[C@H]2C(=O)Nc2ccccc2)NC(c2nccs2)=N[C@H]1c1ccc(F)cc1Br` [实施例10, (R)-4-(2-溴-4-氟苯基)-6-(((S)-3-(苯基氨甲酰基)吗啉代)甲基)-2-(噻唑-2-基)-1,4-二氢嘧啶-5-甲酸乙酯] belongs 6.10. The same measure, in the same setting: to `CCOC(=O)C1=C(CN2CCOC[C@H]2C(=O)Nc2ccccc2)NC(c2nccs2)=N[C@H]1c1ccc(F)cc1Cl` [实施例11, (R)-4-(2-氯-4-氟苯基)-6-(((S)-3-(苯基氨甲酰基)吗啉代)甲基)-2-(噻唑-2-基)-1,4-二氢嘧啶-5-甲酸乙酯] belongs 6.04; to `CCOC(=O)C1=C(CN2CCOC[C@H]2C(=O)Nc2ccccc2)NC(c2nccs2)=N[C@H]1c1ccc(Cl)cc1Cl` [实施例12, (R)-4-(2,4-二氯苯基)-6-(((S)-3-(苯基氨甲酰基)吗啉代)甲基)-2-(噻唑-2-基)-1,4-二氢嘧啶-5-甲酸乙酯], 6.14. `CCOC(=O)C1=C(CN2CCOC[C@H]2C(=O)Nc2nccs2)NC(c2nccs2)=N[C@H]1c1ccc(F)cc1Br` [实施例13, (R)-4-(2-溴-4-氟苯基)-2-(噻唑-2-基)-6-(((S)-3-(噻唑-2-基氨甲酰)吗啉代)甲基)-1,4-二氢嘧啶-5-甲酸乙酯]: in test [1], the pEC50 is 5.85. Same read-out and setting: to `CCOC(=O)C1=C(CN2CCOC(CCC(=O)Nc3ccccc3)C2)NC(c2nccs2)=NC1c1ccc(F)cc1Br` (centres unmarked) [实施例14, 4-(2-溴-4-氟苯基)-6-((-2-(3-氧代-3-(苯胺)丙基)吗啉代)甲基)-2-(噻唑-2-基)-1,4-二氢嘧啶-5-甲酸乙酯] belongs 6.27; to `CCOC(=O)C1=C(CN2CCOC(CCC(=O)Nc3ccccc3)C2)NC(c2nccs2)=NC1c1ccc(F)cc1Cl` (centres unmarked) [实施例15, 4-(2-氯-4-氟苯基)-6-((-2-(3-氧代-3-(苯胺)丙基)吗啉代)甲基)-2-(噻唑-2-基)-1,4-二氢嘧啶-5-甲酸乙酯], 6.17; to `CCOC(=O)C1=C(CN2CCOC(CCC(=O)Nc3ccccc3)C2)NC(c2nccs2)=NC1c1ccc(Cl)cc1Cl` (centres unmarked) [实施例16, 4-(2,4-二氯苯基)-6-((-2-(3-氧代-3-(苯胺)丙基)吗啉代)甲基)-2-(噻唑-2-基)-1,4-二氢嘧啶-5-甲酸乙酯], 6.31.

`COC(=O)C1=C(CN2CCOC(CCC(=O)NS(=O)(=O)c3ccccc3)C2)NC(c2nccs2)=NC1c1ccc(F)cc1Br` (centres unmarked) [实施例17, 4-(2-溴-4-氟苯基)-6-((-2-(3-氧代-3-(苯磺酰胺)丙基)吗啉代)甲基)-2-(噻唑-2-基)-1,4-二氢嘧啶-5-甲酸甲酯]: in test [1], the pEC50 is 6.19. The pEC50 values of the last two compounds are within 0.2 log units of each other. The same measure, in the same setting: to `COC(=O)C1=C(CN2CCOC(CCC(=O)NS(=O)(=O)c3ccccc3)C2)NC(c2nccs2)=NC1c1ccc(F)cc1Cl` (centres unmarked) [实施例18, 4-(2-氯-4-氟苯基)-6-((2-(3-氧代-3-(苯磺酰胺)丙基)吗啉代)甲基)-2-(噻唑-2-基)-1,4-二氢嘧啶-5-甲酸甲酯] belongs 6.13; to `COC(=O)C1=C(CN2CCOC(CCC(=O)NS(=O)(=O)c3ccccc3)C2)NC(c2nccs2)=NC1c1ccc(Cl)cc1Cl` (centres unmarked) [实施例19, 4-(2,4-二氯苯基)-6-((2-(3-氧代-3-(苯磺酰胺)丙基)吗啉代)甲基)-2-(噻唑-2-基)-1,4-二氢嘧啶-5-甲酸甲酯], 6.25. For orientation: pIC50 means the negative decadic logarithm of the IC50, by convention in mol/L. For the compound `Nc1ccn([C@@H]2CS[C@H](CO)O2)c(=O)n1` [拉米夫定], the pIC50 in the test with HBV was 6.52.

Values taken from patent publication CN104650070A, “二氢嘧啶类化合物及其在药物中的应用” (Guangdong HEC Pharmaceutical Co Ltd, priority 2013, dated 2015).
